# Tests used:
# Conditions in all cases: 72 h
# Caco-2 [1] = test: cell viability relative to DMSO; higher = less toxic
# Calu-3 [2] = test: as above
# HepG2 [3] = test: as above
# U2OS [4] = test: as above
# Vero E6 [5] = test: as above
# Caco-2 [6] = test: relative viability EC50 (midpoint between 100% and the lowest measured viability); higher = less toxic
# Calu-3 [7] = test: as above
# HepG2 [8] = test: as above
# U2OS [9] = test: as above
# Vero E6 [10] = test: as above
# Caco-2 [11] = test: drug sensitivity score (DSS) for viability; higher = more toxic; extreme values may be limits of the assay
# Calu-3 [12] = test: as above
# HepG2 [13] = test: as above
# U2OS [14] = test: as above
# Vero E6 [15] = test: as above
SMILES,cell viability (Caco-2 [1]; 1 nM) [%],cell viability (Caco-2 [1]; 10 nM) [%],cell viability (Caco-2 [1]; 100 nM) [%],cell viability (Caco-2 [1]; 1000 nM) [%],cell viability (Caco-2 [1]; 10000 nM) [%],cell viability (Calu-3 [2]; 1 nM) [%],cell viability (Calu-3 [2]; 10 nM) [%],cell viability (Calu-3 [2]; 100 nM) [%],cell viability (Calu-3 [2]; 1000 nM) [%],cell viability (Calu-3 [2]; 10000 nM) [%],cell viability (HepG2 [3]; 1 nM) [%],cell viability (HepG2 [3]; 10 nM) [%],cell viability (HepG2 [3]; 100 nM) [%],cell viability (HepG2 [3]; 1000 nM) [%],cell viability (HepG2 [3]; 10000 nM) [%],cell viability (U2OS [4]; 1 nM) [%],cell viability (U2OS [4]; 10 nM) [%],cell viability (U2OS [4]; 100 nM) [%],cell viability (U2OS [4]; 1000 nM) [%],cell viability (U2OS [4]; 10000 nM) [%],cell viability (Vero E6 [5]; 1 nM) [%],cell viability (Vero E6 [5]; 10 nM) [%],cell viability (Vero E6 [5]; 100 nM) [%],cell viability (Vero E6 [5]; 1000 nM) [%],cell viability (Vero E6 [5]; 10000 nM) [%],relative viability EC50 (Caco-2 [6]) [µM],relative viability EC50 (Calu-3 [7]) [µM],relative viability EC50 (HepG2 [8]) [µM],relative viability EC50 (U2OS [9]) [µM],relative viability EC50 (Vero E6 [10]) [µM],drug sensitivity score (Caco-2 [11]),drug sensitivity score (Calu-3 [12]),drug sensitivity score (HepG2 [13]),drug sensitivity score (U2OS [14]),drug sensitivity score (Vero E6 [15])
CCC(=O)[C@@]1(C)[C@H](C)C[C@H]2[C@@H]3CCC4=CC(=O)C=C[C@]4(C)[C@H]3[C@@H](O)C[C@@]21C [rimexolone],85.5,90.5,101,88.8,107,98.4,99,89.4,102,96.4,86.3,102,95.4,112,92.8,99.8,98.9,100,95.5,97,93.8,95.2,90,94.7,100,> 10,> 10,> 10,> 10,> 10,0,0,0,0,0
N#C/C(=C\c1cccn1S(=O)(=O)c1cccc([N+](=O)[O-])c1)S(=O)(=O)c1ccc(F)cc1 [AMZ30],104,99,95.3,96.3,84.8,90.5,98,104,105,108,95.8,105,119,93.7,103,102,101,96.8,96.2,94.1,98.6,97.6,96.4,94.9,93.3,> 10,> 10,> 10,> 10,> 10,0.4,0,0,0,0
CC(C)[C@]12O[C@H]1[C@@H]1O[C@]13[C@]1(O[C@H]1C[C@H]1C4=C(CC[C@@]13C)C(=O)OC4)[C@@H]2O [triptolide],84.5,56.5,24.7,24.7,27.6,108,71.5,25.8,34.9,34.2,79.4,30,4.6,7.7,6.2,94,34.2,1.5,1.8,2.1,101,55.4,1.6,5.4,5.1,0.0058,0.0121,0.0036,0.0063,0.0108,29.2,27.1,39.2,38.2,35.8
N#Cc1ccc(C2CCCc3cncn32)cc1 (stereo not given) [fadrozole],77.9,87.4,89.6,92.6,82.3,91.1,103,96.6,98,95.3,96.9,100,91.6,103,96.2,96.2,91.4,96.4,93.4,97.4,95.4,95.6,89.1,94.9,95.2,> 10,> 10,> 10,> 10,> 10,0,0,0,0,0
CC(=O)N[C@@H](CSSC[C@H](NC(C)=O)C(=O)O)C(=O)O [D-7193],100,96.1,104,92,100,93.5,83.4,103,95.6,110,108,88.5,108,98.9,98,95.1,96.2,98.6,98.2,101,107,106,100,103,99.2,> 10,> 10,> 10,> 10,> 10,0,0,0,0,0
CN(C)c1cccc(Oc2cnc(Nc3cccc(O)c3)nc2)c1 [SEN-1269],96.5,102,102,96.3,82.3,94.5,99.7,100,95.4,102,102,104,93.8,93,99.9,101,102,95.5,99.5,94.8,98,94.4,95.9,89.2,93.4,> 10,> 10,> 10,> 10,> 10,0.9,0,0,0,0
Cc1c(-c2ccccc2F)[nH]c(N)c1C#N [NS-8],96.9,90.1,105,97.5,105,104,101,83.6,103,99.2,93.1,98.3,90.7,96.9,116,98.1,95.9,99.8,93.9,103,95.2,99.1,96.2,97.7,109,> 10,> 10,> 10,> 10,> 10,0,0,0,0,0
CN1CCN(C(=O)c2cc3cc(Cl)ccc3[nH]2)CC1,103,107,102,89.9,109,110,89.7,106,93.7,93.8,98.1,104,92.5,116,94.8,99.9,100,104,103,95.6,97.3,96.3,98.6,100,99.8,> 10,> 10,> 10,> 10,> 10,0,0,0,0,0
CC(ONC(=O)c1cc(C(F)(F)F)cc(C(F)(F)F)c1)C(=O)Nc1ccc(Cl)cc1 (stereo not given) [CCG-1423],99.9,97.9,91.4,97.4,88.6,96.4,89.5,85,95.1,98.7,108,99.4,94.9,96.8,89.2,100,98.6,105,99.6,101,101,99.4,99,105,99.2,> 10,> 10,> 10,> 10,> 10,0,0,0,0,0
COC(=O)c1c(C)[nH]c(C)c1C(=O)c1ccccc1Cc1ccccc1,98.6,97.1,98.1,99.9,84.8,90.1,106,89.8,108,90.1,99.2,94.8,109,95.8,104,99.5,103,87.8,102,92.1,100,101,98,94.1,99.8,> 10,> 10,> 10,> 10,> 10,0.3,0,0,0,0
C/C(O)=C(\C#N)C(=O)Nc1cc(Br)ccc1Br [LFM-A13],99.6,99.5,90.1,100,92.1,92.8,99.6,103,100,94.7,105,99.7,99.5,99,101,102,103,97.3,104,96.4,112,80.5,99,96.3,105,> 10,> 10,> 10,> 10,> 10,0,0,0,0,0
CN(C)CC[C@@]1(c2ccc(Cl)cc2)Cc2ccccc2C(=O)O1 (racemic) [AC-7954-(+/-)],103,92.4,98.3,102,106,98.2,104,103,96.5,104,89.8,104,104,96.4,94.8,99,94.9,99.4,105,102,91.4,94.8,88.3,92.8,100,> 10,> 10,> 10,> 10,> 10,0,0,0,0,0
O=C(Nc1cc(C(F)(F)F)ccc1O)Nc1cc(C(F)(F)F)ccc1O [NS-1643],108,101,102,95,88.3,102,94.7,103,97.4,104,95.3,105,110,94.7,92.5,99.3,100,104,102,96.9,98.8,103,100,99.1,95.1,> 10,> 10,> 10,> 10,> 10,0.2,0,0,0,0
CN/C(=N\S(=O)(=O)c1ccc(Cl)cc1)N1C[C@H](c2ccccc2)C(c2ccc(Cl)cc2)=N1 (racemic) [SLV-319-(+/-)],95.1,96.3,100,103,83.1,107,98.5,100,118,111,108,94.2,99.9,89.6,93.7,99.9,99.1,102,98.9,93.1,98.1,105,100,91.3,94.8,> 10,> 10,> 10,> 10,> 10,0.2,0,0.1,0,0

# — the supplement of paper PMC13380429
